The record followed here is paper PMC5983452 (PLoS ONE, 2018).

Each structure is given as a SMILES string. Values joined by “and” are separate entries in the source; they are usually repeats but may differ in a detail not shown here. Equal values may be shown once. “Also recorded” adds a separate entry of the source. Where a name gives a salt, the structure may show the parent alone.

The subject of one data set is A549 cells. In words: Trametinib growth inhibition in combination with EPZ028862. To be noted: 2, 5 and 7 days. Format: cell-based. An excerpt: Plotted data is the average of three biological replicates. Error bars represent standard deviation. (PDF) Click here for additional data file.
Data set [1] is described as follows: in vitro. The data set is classed as in vitro ADME. The following applies: plasma. As for the experimental part: (§1) After stirred for 30 min at 25 °C, NaBH3CN […]
(§2) mixture was concentrated under vacuum. […] The combined organic […]
(§3) The crude product was further
(§4) The fractions containing product were combined and concentrated. […]
(§5) cyclopropylisoxazole-3-carboxamide hydrochloride as a light yellow solid.
(§6) Media was changed every two or three days. On
(§7) 95% at 37°C. […] Cells were
(§8) At 120 min the companion plate was
(§9) Permeability was assessed in duplicate, on two […]
(§10) different occasions. […] Compounds were quantified by LC-MS/MS analysis using a 5 point calibration curve.
(§11) The permeability coefficient
(§12) Solutions of test compounds (1 µM, 0.5% final
(§13) Incubations were performed in
(§14) Haloperidol was incubated in parallel as the control compound for each species.
(§15) (7 points) and protein containing solutions (6 points).
(§16) Liver microsome (LM) stability. […]
(§17) the reaction. The final incubation volume was 50 µL. Negative control incubations were included where phosphate buffer was […]
(§18) min. The negative controls were incubated for 45 min only. […]
(§19) µL methanol at the appropriate time points.
(§20) Subsequently, intrinsic CL (CLint) was […]

The format of data set [2] is in vitro ADME. The following applies: plasma. As for the experimental part: as §1, §2, §3, §4, §5, §6, §7, §8, §9, §10, §11, §12, §13, §14, §15, §16, §17, §18, §19, §20
Data set [3] is described as follows: in vitro. The data set is classed as in vitro ADME, SD rats. To be noted: male, Sprague-Dawley.
A short description of data set [4]: in vitro. Format: in vitro ADME, humans.
The nature of data set [5]: Hepatocyte stability, rat. Format: in vitro ADME, SD rats.
Data set [6] can be described thus: Hepatocyte stability, dog. The following applies: male, beagle, cryopreserved hepatocytes, read-out: CLint measured with hepatocytes, Dog. The data set is classed as in vitro ADME, beagle dogs.
Data set [7] can be described thus: Rat pharmacokinetic study. The data set is classed as in vivo, male Sprague Dawley rats. To be noted: male Sprague Dawley. As for the experimental part:
(§21) 2. […] Food was returned 4 hours after dosing. […] 4. […] Food was returned 4 hours after dosing. […] Supplemental Results:SMYD2 compound characterization […] The […] nM (Figure S8A).

Data set [8] can be described thus: Monkey (NHP) pharmacokinetic study. The data set is classed as in vivo, male cynomolgus monkeys. The following applies: cynomolgus monkey, male Cynomolgus. Here is the method:
as §21

The subject of data set [9] is panel of 140 cell lines grown in matrigel. Kind of data set: cells. To be noted: read-out: growth effects in panel of 140 cell lines grown in matrigel (none observed up to).
The nature of data set [10]: in vitro. To be noted: human.
Procedure: (§22) Caco-2 permeability. Caco-2 cells (obtained from the ATCC), between passage numbers 40 to 60, were seeded onto Millipore
(§23) Multiscreen plates at 1x10^5 cells/cm2 in Dulbecco's Modified Eagle Medium. Media was changed every two or three days. On
(§24) Day 20, the permeability study was performed using Hanks Balanced Salt Solution (HBSS) pH 7.4 buffer with 25 mM HEPES and
(§25) Incubations were carried out in an atmosphere of 5% CO2 with a relative humidity of
(§26) The monolayers were prepared by rinsing both basolateral and apical surfaces twice with HBSS at 37°C. Cells were
then incubated with HBSS in both apical and basolateral compartments for 40 min to stabilize physiological parameters. HBSS
was then removed from the apical or basolateral compartment and replaced with 10 µM test compound dosing solutions (1% final
DMSO). The pH of supplemented HBSS was 6.5 and 7.5 in the apical and basolateral compartments, respectively. The apical
compartment inserts were then placed into ‘companion’ plates containing fresh HBSS.
(§27) removed and apical and basolateral samples diluted for analysis by LC-MS/MS. Permeability was assessed in duplicate, on two
different occasions. On each plate atenolol and propanolol were run as controls. Compounds were quantified by LC-MS/MS analysis using a 5 point calibration curve. The starting concentration (C0) was determined from the dosing solution and
experimental recovery calculated from C0 and both apical and basolateral compartment concentrations. The permeability coefficient
(Papp) for each compound was calculated as: (dQ/dt)/(C0xA), where dQ/dt is the rate of permeation of the drug across the cells, C0
is the donor compartment concentration at time zero and A is the area of the cell monolayer.
Plasma protein binding. Plasma protein binding was assessed by equilibrium dialysis utilizing the HT-dialysis cell format with a
cellulose semi-permeable membrane (molecular weight cut-off of 5000 Da). Solutions of test compounds (1 µM, 0.5% final
DMSO concentration) were prepared in isotonic phosphate buffer (pH 7.4) and 100% pooled male CD-1 mouse plasma. The
buffer solution was added to one side of the membrane and the plasma solution to the other side. Incubations were performed in
Haloperidol was incubated in parallel as the control compound for each species. At the end of the incubation time, samples were taken from both sides of the membrane.
Following protein precipitation, the samples were analyzed by LC-MS/MS using two sets of calibration standards for protein free
(7 points) and protein containing solutions (6 points). Samples were quantified using standard curves prepared in the equivalent
matrix. The fraction unbound in plasma (fu) was calculated using the following equation:
Where, PC = sample concentration in protein containing side, PF = sample concentration in protein free side, and VCorrection =
correction factor for the volume shift i.e. ratio of the volume of the protein after dialysis to that before dialysis.
Data set [11] is described as follows: in vitro. The following applies: human, plasma, pH 7.4, Human fu (unbound fraction).
Procedure: as §22, §23, §24, §25, §26
(§28) then incubated with HBSS in both apical and basolateral compartments for 40 min to stabilize physiological parameters. HBSS […]
as §27
(§29) different occasions. […] Compounds were quantified by LC-MS/MS analysis using a 5 point calibration curve. The starting concentration (C0) was determined from the dosing solution and
(§30) experimental recovery calculated from C0 and both apical and basolateral compartment concentrations. […]
(§31) (Papp) for each compound was calculated as: (dQ/dt)/(C0xA), where dQ/dt is the rate of permeation of the drug across the cells, C0 […]
(§32) Plasma protein binding. Plasma protein binding was assessed by equilibrium dialysis utilizing the HT-dialysis cell format with a […]
Data set [12] in a line: Plasma protein binding (equilibrium dialysis), mouse. The following applies: male, CD-1, mouse, pH 7.4.
Procedure: as §22, §23, §24, §25, §26, §28, §27, §29, §30, §31, §32
A short description of data set [13]: Plasma protein binding (equilibrium dialysis), human. To be noted: pH 7.4, Human fu (unbound fraction).
Procedure: as §22, §23, §24, §25, §26, §28, §27, §29, §30, §31, §32
The next data set deals with SMYD2 (Homo sapiens, UniProt Q9NRG4). Kind of data set: ITC binding assay EPZ033294/SMYD2. Set-up: Full length FLAG-SMYD2 and C-terminally Avi-tagged full length SMYD2 (SMYD2-Avi) were cloned into pFastbac vectors; FLAG (N); His tag with TEV cleavage site (N, cleaved yes); made in house; host or cells: Sf9 insect cells (baculovirus). To be noted: 25°C. Here is the method: The assay buffer contained 20 mM Tris-HCl pH 8.0, 100 mM sodium chloride, 1 mM TCEP, 5% glycerol, 50 μM S-adenosylmethionine (SAM), and 0.1% DMSO. […] The assay background signal was generated by injecting compound into buffer in the absence of enzyme and subtracted from the experimental data. The binding isotherm was fitted using the single site model in the Origin software for data analysis (OriginLab, Northampton, MA).

Setting [14] is: plasma, IV 1 mg/kg, read-out: CLp.
[15] abbreviates: plasma, IV 1 mg/kg, read-out: Vss.

Chain of SMYD2 (Q9NRG4 whole entry): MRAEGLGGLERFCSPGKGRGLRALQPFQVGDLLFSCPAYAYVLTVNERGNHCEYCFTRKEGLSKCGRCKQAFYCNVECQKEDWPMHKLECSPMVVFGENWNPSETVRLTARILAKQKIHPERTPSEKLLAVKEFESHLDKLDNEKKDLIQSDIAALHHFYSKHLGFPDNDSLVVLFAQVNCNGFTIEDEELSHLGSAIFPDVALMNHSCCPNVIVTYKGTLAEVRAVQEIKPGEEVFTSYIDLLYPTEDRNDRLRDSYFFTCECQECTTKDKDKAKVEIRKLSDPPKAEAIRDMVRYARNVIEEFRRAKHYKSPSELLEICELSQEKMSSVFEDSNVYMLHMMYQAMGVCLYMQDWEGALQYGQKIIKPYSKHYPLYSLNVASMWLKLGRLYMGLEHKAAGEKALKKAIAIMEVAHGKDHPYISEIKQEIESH

The term fraction unbound denotes free concentration divided by total concentration. By microsomal CLint is commonly meant a measure of how fast metabolising enzymes remove a compound, apart from limits set by blood flow. One may read the bioavailability as the share of a dose that reaches the circulation, judged against a reference dose that is usually intravenous. As usually defined, the half-life is the time needed for the level to fall by half in the phase considered. The term Tmax denotes the time from dosing to the highest level. By MRT is commonly meant a mean duration of stay, worked out from the concentration-time curve. Broadly, the Papp A→B is the apparent permeability from the apical to the basolateral side of a cell layer. In general, Papp B→A refers to the apparent permeability from the basolateral to the apical side of a cell layer. For `NC1CCC(S(=O)(=O)N2C3CCC2CC(NC(=O)c2cc(C4CC4)on2)C3)CC1` [EPZ028862, N-((1R,3R,5S)-8-((1r,4R)-4-aminocyclohexylsulfonyl)-8-aza-bicyclo[3.2.1]octan-3-yl)-5-cyclopropylisoxazole-3-carboxamide hydrochloride], the “effect of 1 μM EPZ028862 on growth inhibition by trametinib” value in the data set on A549 cells was “unaffected; also recorded: no effect”. Further, the fraction unbound at 16 h, 1 µM was 0.82 in the data set “in vitro [1]” (dog, pH 7.4); 0.64 in the data set “in vitro [1]” (rat, pH 7.4, Rat fu (unbound fraction)); 0.71 in the data set “in vitro [11]”. Moreover, the “Monkey fu (unbound fraction)” value in [2] was “highly bound”. Also, the “CLint measured with liver microsomes, Rat” value in the data set “in vitro [3]” (1 µM, pH 7.4) is listed as 3.4 µL/min/mg microsomal protein. The microsomal CLint at 1 µM was less than 3 µL/min/mg in the data set “in vitro [3]” (rat, microsomes, pH 7.4, CLint measured with liver microsomes) and less than 3 µL/min/mg in the data set “in vitro [4]” (both sexes, human, microsomes, pH 7.4, CLint measured with liver microsomes). Besides, the “CLint measured with liver microsomes, Human” value in the data set “in vitro [4]” (both, 1 µM, pH 7.4) was 3.3 µL/min/mg microsomal protein. Besides, in [5] (1 µM), the “CLint measured with hepatocytes, Rat” value came to 3.5 µL/min/106 cells. In addition, the hepatocyte CLint at 1 µM was 5.2 µL/min/1e6 cells in data set [5] (male, Sprague-Dawley, rat, cryopreserved hepatocytes, read-out: CLint measured with hepatocytes, Rat) and less than 3 µL/min/1e6 cells in data set [6]. The bioavailability in data set [7] (plasma, IV 1 mg/kg, PO 5 mg/kg) worked out at 59 ± 10%; in data set [8] (plasma, IV 1 mg/kg, PO 5 mg/kg) it was 62 ± 13%. The half-life in data set [7] (plasma, IV 1 mg/kg, PO 5 mg/kg) is 2.1 ± 0.2 h; in data set [8] (plasma, IV 1 mg/kg, PO 5 mg/kg), 5.6 ± 1.3 h. For the same compound, the figures for the clearance in data set [7] (setting [14]) and in [8] (setting [14]) were 32.7 ± 4.4 mL/min/kg and 21.4 ± 3.4 mL/min/kg, respectively. Further, the Vd in [7] (setting [15]) stood at 4.4 ± 0.1 L/kg; in data set [8] (setting [15]), 9.5 ± 2.5 L/kg. The Tmax was determined as 1 h in [7] (plasma, PO 5 mg/kg) and 2 h in data set [8] (plasma, PO 5 mg/kg). Also, the CL renal was found to be 21 ± 6 mL/min/kg in data set [7] (urine and plasma, IV 1 mg/kg); 1.06 ± 0.84 mL/min/kg in data set [8] (urine and plasma, IV 1 mg/kg). In addition, the mean residence time (MRT) in data set [8] (plasma, IV 1 mg/kg, PO 5 mg/kg) is 7.4 ± 1.5 h. Moreover, in [9], the IC50 is more than 25000 nM. Also, in the data set “in vitro [10]” (Caco-2, Papp,AB), the Papp A→B at 120 min, 10 µM amounted to 0.46 ×10⁻⁶ cm/s. The compound also came in with a Papp B→A at 120 min, 10 µM in “in vitro [10]” (Caco-2, Papp,BA) of 16.4 ×10⁻⁶ cm/s.
Usually Kd stands for the free concentration of one partner at which half of the binding sites on the other are occupied at equilibrium, for simple one-to-one binding. As for `O=C(NC1CN(Cc2cnn(Cc3ccc(Cl)cc3)c2)C1)c1cn(C2CC2)nn1` [EPZ033294], the fraction unbound at 16 h, 1 µM in data set [12] was determined as 0.26; in [13] it was 0.13. Moreover, the “stoichiometry of binding (N) by ITC” value on SMYD2 was 0.7 ± 1 and 0.7. Further, the Kd at SMYD2 (50 μM SAM, three test occasions, read-out: dissociation constant KD by ITC) came out at 8.3 ± 8.2 nM.
